Test results taken from the supplement of paper PMC11061612.

Tests used:
Assay in all cases: Bliss excess, mean over the matrix (fraction); higher = more synergy
[1] = system: CGTH-W-1 (Thyroid Gland Carcinoma)
How it was run: (§1)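 After 24 hours at 37°C and 5% CO2 in 1536-well plates, cells in DMEM/F12 or RPMI plus 10% FBS received two-drug dose matrices for 72 hours. Viability came from CellTiter-Glo 2.0 luminescence and was scaled as inhibition, anchored at 0 by vehicle wells and at 1 by blank wells. Combination Emax is taken as the second-highest inhibition in the matrix, and Bliss excess as the observed combination effect less EA + EB − EA·EB, with EA and EB the single-agent effects.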

EW-7 (Ewing's Sarcoma) = system: EW-7 (Ewing's Sarcoma)
How it was run: as §1

HCC70 (Breast Carcinoma) = system: HCC70 (Breast Carcinoma)
How it was run: as §1

IM-9 (Non-Cancerous) = system: IM-9 (Non-Cancerous)
How it was run: as §1

[2] = system: JHU-022 (Oral Cavity Carcinoma)
How it was run: as §1

KP-N-YN (Neuroblastoma) = system: KP-N-YN (Neuroblastoma)
How it was run: as §1

[3] = system: LU-165 (Small Cell Lung Carcinoma)
How it was run: as §1

[4] = system: NCI-H1651 (Lung Adenocarcinoma)
How it was run: as §1

[5] = system: NCI-H2087 (Lung Adenocarcinoma)
How it was run: as §1

[6] = system: SK-HEP-1 (Hepatocellular Carcinoma)
How it was run: as §1

O=C(c1cc(Cc2n[nH]c(=O)c3ccccc23)ccc1F)N1CCN(C(=O)C2CC2)CC1 [Olaparib] + Cc1c2c(nn1C)CSCc1cc(n(C)n1)CSc1cc(c3ccccc3c1)OCCCc1c(C(=O)O)n(C)c3c-2c(Cl)ccc13 [AZD5991] (first compound max 10 µM, 7x7, partner max 1 µM)
Bliss excess [1]: -0.045 | Bliss excess (EW-7 (Ewing's Sarcoma)): 0.015 | Bliss excess (HCC70 (Breast Carcinoma)): -0.0185 | Bliss excess (IM-9 (Non-Cancerous)): 0.0865 | Bliss excess [2]: -0.052 | Bliss excess (KP-N-YN (Neuroblastoma)): -0.068 | Bliss excess [3]: -0.0374 | Bliss excess [4]: -0.0207 | Bliss excess [5]: -0.0327 | Bliss excess [6]: -0.0101

Cc1c2c(nn1C)CSCc1cc(n(C)n1)CSc1cc(c3ccccc3c1)OCCCc1c(C(=O)O)n(C)c3c-2c(Cl)ccc13 [AZD5991] + CS(=O)(=O)CCNCc1ccc(-c2ccc3ncnc(Nc4ccc(OCc5cccc(F)c5)c(Cl)c4)c3c2)o1 [Lapatinib] (first compound max 1 µM, 7x7, partner max 10 µM)
Bliss excess [1]: 0.0013 | Bliss excess (EW-7 (Ewing's Sarcoma)): 0.033 | Bliss excess (HCC70 (Breast Carcinoma)): 0.0603 | Bliss excess (IM-9 (Non-Cancerous)): 0.0138 | Bliss excess [2]: 0.0807 | Bliss excess (KP-N-YN (Neuroblastoma)): 0.0426 | Bliss excess [3]: -0.125 | Bliss excess [4]: -0.0015 | Bliss excess [5]: 0.0165 | Bliss excess [6]: 0.0191

CN(CCO)CC[C@H](CSc1ccccc1)Nc1ccc(S(=O)(=O)NC(=O)c2ccc(N3CCC([C@@H](O)c4ccccc4-c4ccc(Cl)cc4)CC3)cc2)cc1S(=O)(=O)C(F)(F)F [AZD4320] + CS(=O)(=O)CCNCc1ccc(-c2ccc3ncnc(Nc4ccc(OCc5cccc(F)c5)c(Cl)c4)c3c2)o1 [Lapatinib] (first compound max 1 µM, 7x7, partner max 10 µM)
Bliss excess [1]: -0.0184 | Bliss excess (EW-7 (Ewing's Sarcoma)): 0.138 | Bliss excess (HCC70 (Breast Carcinoma)): 0.0536 | Bliss excess (IM-9 (Non-Cancerous)): 0.117 | Bliss excess [2]: 0.0438 | Bliss excess (KP-N-YN (Neuroblastoma)): 0.0811 | Bliss excess [4]: 0.0395 | Bliss excess [5]: -0.0033 | Bliss excess [6]: -0.0958

Cc1nc(-c2cn3c(n2)-c2ccc(-c4cnn(C(C)(C)C(N)=O)c4)cc2OCC3)n(C(C)C)n1 [Taselisib] + O=C(Nc1ccc2[nH]nc(-c3ccncc3)c2c1)[C@@H]1CCN(CC(=O)N2CCN(c3ccc(-c4ncccn4)cc3)CC2)C1 [SCH772984] (first compound max 10 µM, 7x7, partner max 5 µM)
Bliss excess [1]: 0.0884 | Bliss excess (EW-7 (Ewing's Sarcoma)): 0.0128 | Bliss excess (HCC70 (Breast Carcinoma)): 0.0593 | Bliss excess (IM-9 (Non-Cancerous)): -0.0407 | Bliss excess [2]: -0.0001 | Bliss excess (KP-N-YN (Neuroblastoma)): 0.0278 | Bliss excess [3]: -0.0073 | Bliss excess [4]: 0.0132 | Bliss excess [5]: 0.0543 | Bliss excess [6]: 0.0372

C=CCn1c(=O)c2cnc(Nc3ccc(N4CCN(C)CC4)cc3)nc2n1-c1cccc(C(C)(C)O)n1 [AZD1775] + CCc1c2c(nc3ccc(O)cc13)-c1cc3c(c(=O)n1C2)COC(=O)[C@]3(O)CC [SN-38] (first compound max 1 µM, partner max 0.3 µM)
Bliss excess [1]: -0.0747 | Bliss excess (EW-7 (Ewing's Sarcoma)): -0.0501 | Bliss excess (HCC70 (Breast Carcinoma)): -0.0528 | Bliss excess (IM-9 (Non-Cancerous)): 0.0003 | Bliss excess [2]: -0.0638 | Bliss excess (KP-N-YN (Neuroblastoma)): -0.0339 | Bliss excess [3]: -0.0771 | Bliss excess [4]: -0.0342 | Bliss excess [5]: 0.0067 | Bliss excess [6]: -0.0134

Cc1c2c(nn1C)CSCc1cc(n(C)n1)CSc1cc(c3ccccc3c1)OCCCc1c(C(=O)O)n(C)c3c-2c(Cl)ccc13 [AZD5991] + Nc1ccn([C@@H]2O[C@H](CO)[C@@H](O)C2(F)F)c(=O)n1 [Gemcitabine] (first compound max 1 µM, 7x7, partner max 0.3 µM)
Bliss excess [1]: -0.0235 | Bliss excess (EW-7 (Ewing's Sarcoma)): -0.0158 | Bliss excess (HCC70 (Breast Carcinoma)): 0.0365 | Bliss excess (IM-9 (Non-Cancerous)): -0.0364 | Bliss excess [2]: -0.0307 | Bliss excess [3]: -0.0278 | Bliss excess [4]: 0.0582 | Bliss excess [5]: -0.0307 | Bliss excess [6]: -0.109

C[C@@H](Oc1cc(-c2cnn(C3CCNCC3)c2)cnc1N)c1c(Cl)ccc(F)c1Cl [Crizotinib] + Cn1cnc2c(F)c(Nc3ccc(Br)cc3Cl)c(C(=O)NOCCO)cc21 [Selumetinib] (first compound max 10 µM, 7x7, partner max 10 µM)
Bliss excess [1]: -0.0275 | Bliss excess (EW-7 (Ewing's Sarcoma)): -0.0101 | Bliss excess (HCC70 (Breast Carcinoma)): 0.0191 | Bliss excess (IM-9 (Non-Cancerous)): -0.009 | Bliss excess [2]: -0.0115 | Bliss excess (KP-N-YN (Neuroblastoma)): -0.105 | Bliss excess [3]: -0.082 | Bliss excess [4]: -0.0478 | Bliss excess [5]: -0.0078 | Bliss excess [6]: -0.0968

C[C@@H]1COCCN1c1cc(C2([S@](C)(=N)=O)CC2)nc(-c2ccnc3[nH]ccc23)n1 [AZD6738] + Nc1ccn([C@@H]2O[C@H](CO)[C@@H](O)C2(F)F)c(=O)n1 [Gemcitabine] (first compound max 10 µM, 7x7, partner max 0.3 µM)
Bliss excess [1]: 0.106 | Bliss excess (EW-7 (Ewing's Sarcoma)): 0.0313 | Bliss excess (HCC70 (Breast Carcinoma)): 0.0904 | Bliss excess (IM-9 (Non-Cancerous)): -0.0189 | Bliss excess [2]: 0.0407 | Bliss excess [3]: -0.018 | Bliss excess [4]: 0.039 | Bliss excess [5]: 0.0743 | Bliss excess [6]: 0.0557

C=CCn1c(=O)c2cnc(Nc3ccc(N4CCN(C)CC4)cc3)nc2n1-c1cccc(C(C)(C)O)n1 [AZD1775] + Nc1ccn([C@@H]2O[C@H](CO)[C@@H](O)C2(F)F)c(=O)n1 [Gemcitabine] (first compound max 1 µM, partner max 0.3 µM)
Bliss excess [1]: 0.0167 | Bliss excess (EW-7 (Ewing's Sarcoma)): 0.0396 | Bliss excess (HCC70 (Breast Carcinoma)): -0.0232 | Bliss excess (IM-9 (Non-Cancerous)): 0.0398 | Bliss excess [2]: 0.0276 | Bliss excess [3]: 0.0004 | Bliss excess [4]: -0.0104 | Bliss excess [5]: 0.0247 | Bliss excess [6]: -0.029
